Experimental data from patent US4123540A, “Isoclavulanic acid as an antibacterial and a β-lactamase inhibitor” (Beecham Group Limited, priority 1974, dated 1978).
Counter-ions that a name gives are not always drawn. Each block holds one compound with its values, some of them ahead of it.

Tests used:
[1] = system: Staphylococcus aureus Russell; test: MIC, microtitre technique (Example 53); type: cell-based
[2] = system: Klebsiella aerogenes E 70; test: MIC / synergism, microtitre method (Example 42); type: cell-based; details: method of Example 42 (μg/ml)
[3] = system: Staphylococcus aureus (Russell); test: MIC / synergism with methyl ester (Example 32); type: cell-based; details: in the presence of 1.0 μg/ml. clavulanic acid methyl ester
[4] = system: Klebsiella aerogenes E70; test: MIC, microtitre technique (Example 53); type: cell-based
[5] = system: Klebsiella aerogenes A; test: MIC / synergism, microtitre method (Example 42); type: cell-based; details: method of Example 42 (μg/ml)
[6] = system: Proteus mirabilis C889; test: MIC / synergism with methyl ester (Example 32); type: cell-based; details: in the presence of 5 μg/ml. clavulanic acid methyl ester
[7] = system: Klebsiella aerogenes 62; test: MIC / synergism, microtitre method (Example 42); type: cell-based; details: method of Example 42 (μg/ml)
[8] = target: T1, β-lactamase produced by Escherichia coli JT4 (Escherichia coli, UniProt P62593); test: β-lactamase inhibition assay (Description 1); type: biochemical
T1 construct: This cell suspension was then disrupted in an MSE ultrasonic disintegrator at 4° C; endogenous in cells; host or cells: Escherichia coli JT4 (ampicillin-resistant, R-factor), supernatant of sonicated cells

[9] = target: T2, β-lactamase of Staphylococcus aureus (Russell) (Staphylococcus aureus, UniProt P00807); test: β-lactamase inhibition assay; type: biochemical; details: standard enzyme inhibitory assay (Example 49); read-out: I50 (converted)
T2 construct: endogenous in cells; host or cells: Staphylococcus aureus (Russell)

[10] = system: Staphylococcus aureus(Russell); test: MIC / synergism, microtitre method (Example 42); type: cell-based; details: synergist (clavulanic acid sodium salt) added at 1 μg/ml. instead of 5 μg/ml.
[11] = hydrolysis of ester in phosphate buffer pH 7; type: physicochemical; details: 1 mg/ml., 37° C, 0.05M phosphate buffer at pH 7, followed over 2 hours by paper chromatography
Description: The reaction was followed by paper chromatography (bioautographic system). Using the butanol/ethanol/water system to follow the reaction over a period of 2 hours the zone of the methyl ester at Rf 0.79 decreased in size as the zone of clavulanic acid at Rf 0.12 increased.

[12] = head prints sodium clavulanate, title sodium isoclavulanate, inoculum 1/500

T1 sequence (P62593 24-286 limits assumed): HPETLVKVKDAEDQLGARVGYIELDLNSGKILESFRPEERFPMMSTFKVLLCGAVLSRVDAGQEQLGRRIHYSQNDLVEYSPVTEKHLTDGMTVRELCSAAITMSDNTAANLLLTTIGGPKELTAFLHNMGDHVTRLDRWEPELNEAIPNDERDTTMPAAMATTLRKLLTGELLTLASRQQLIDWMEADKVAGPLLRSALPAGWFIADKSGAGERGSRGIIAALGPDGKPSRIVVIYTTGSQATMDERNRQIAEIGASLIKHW

- MIC of Ampicillin + 1μg/ml sodium clavulanate [1, 12]: 3.9 µg/mL
- MIC of Ampicillin + 5μg/ml sodium clavulanate [1, 12]: 0.78 µg/mL
- MIC of Ampicillin + 20μg/ml sodium clavulanate [1, 12]: 0.39 µg/mL
- MIC of Ampicillin + 5 μg/ml of Benzyl Ester of clavulanic acid [2]: 3.9
- MIC of Ampicillin + 5 μg/ml of Methyl Ester of clavulanic acid [2]: 3.9
- MIC of Ampicillin + 1μg/ml sodium clavulanate [4, 12]: 15.6 µg/mL
- MIC of Ampicillin + 20μg/ml sodium clavulanate [4, 12]: 6.2 µg/mL
- MIC of Ampicillin + 5 μg/ml of Benzyl Ester of clavulanic acid [5]: 1.9
- MIC of Ampicillin + 5 μg/ml of Methyl Ester of clavulanic acid [5]: 1.9
- MIC of Ampicillin + 5 μg/ml of Benzyl Ester of clavulanic acid [7]: 3.9
- MIC of Ampicillin + 5 μg/ml of Methyl Ester of clavulanic acid [7]: 3.9
Structure (SMILES): CC1(C)S[C@@H]2[C@H](NC(=O)[C@H](N)c3ccccc3)C(=O)N2[C@H]1C(=O)O [Ampicillin, ampicillin]
- minimum inhibitory concentration (M.I.C.) of antibiotic in presence of synergist [3]: < 0.4 µg/mL
- minimum inhibitory concentration (M.I.C.) of antibiotic in presence of synergist [6]: 31 µg/mL

Structure (SMILES): O=C(COc1ccccc1)OC/C=C1\O[C@@H]2CC(=O)N2[C@H]1C(=O)OCc1ccccc1 [Benzyl phenoxyacetylclavulanate]
- IC50 ([8]; benzylpenicillin substrate, 15 min preincubation, pH 7, 37° C): 5.9 µM
- IC50 [9]: 17.7 µM

Structure (SMILES): O=C(Cc1cccs1)N[C@@H]1C(=O)N2C(C(=O)[O-])=C(C[n+]3ccccc3)CS[C@H]12 [Cephaloridine, cephaloridine]
- Minimum Inhibitory Concentration of cephaloridine in presence of synergist [10]: Same value

Structure (SMILES): COC(=O)[C@H]1/C(=C/CO)O[C@@H]2CC(=O)N21 [clavulanic acid methyl ester]
- hydrolysis of the ester to clavulanic acid [11]: Slow conversion of the ester to clavulanic acid

Structure (SMILES): O=C(O)[C@H]1/C(=C/CO)O[C@@H]2CC(=O)N21 [clavulanic acid sodium salt, 3-(β-hydroxyethylidine)-7-oxo-4-oxa-1-azabicyclo [3,2,0]heptane-2-carboxylic acid sodium salt]
- MIC ([1]; Staphylococcus aureus, compound alone, inoculum of 1/500 of overnight broth): 125 µg/mL
- MIC ([4]; Klebsiella aerogenes, E70): 500 µg/mL

Structure (SMILES): O=C(O)[C@H]1/C(=C/CO)O[C@@H]2CC(=O)N21 [clavulanic acid, Z-(2R,5R)-3-(β-hydroxyethylidene)-7-oxo-4-oxa-1-azabicyclo[3,2,0]heptane-2-carboxylic acid]
- mode of inhibition of the β-lactamase [8]: progressively and irreversibly inhibits
